How the values were obtained:
Experiment in all cases: relative IC50 (inflection point of fitted viability curve, relative to fitted max inhibition); higher = less sensitive
Conditions in all cases: 72 h
NK-92 (IL-2 2.5 ng/mL) = tested on: NK-92 (IL-2 2.5 ng/mL)
Description: (§1)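 Drug sensitivity and resistance testing: 5 concentrations over a 10,000-fold range, 72 h at 37 °C, viability by CellTiter-Glo normalised to DMSO and benzethonium chloride controls. IC50 is the inflection point of a logistic fit (min fixed at 0, max fitted), so it is relative to the fitted maximal inhibition. Kept only where fitted max inhibition is at least 50%.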

NK-YS (IL-2 2.5 ng/mL) = tested on: NK-YS (IL-2 2.5 ng/mL)
Description: as §1

SNK-6 (IL-2 2.5 ng/mL) = tested on: SNK-6 (IL-2 2.5 ng/mL)
Description: as §1

KHYG-1 (IL-2 2.5 ng/mL) = tested on: KHYG-1 (IL-2 2.5 ng/mL)
Description: as §1

NKL (IL-2 2.5 ng/mL) = tested on: NKL (IL-2 2.5 ng/mL)
Description: as §1

[1] = tested on: normal primary NK cells, pool 1 (3 donors), resting (IL-2 0 ng/mL)
Description: as §1

IMC-1 (IL-2 20 ng/mL) = tested on: IMC-1 (IL-2 20 ng/mL)
Description: as §1

KAI3 (IL-2 2.5 ng/mL) = tested on: KAI3 (IL-2 2.5 ng/mL)
Description: as §1

YT (IL-2 2.5 ng/mL) = tested on: YT (IL-2 2.5 ng/mL)
Description: as §1

DERL-7 (IL-2 2.5 ng/mL) = tested on: DERL-7 (IL-2 2.5 ng/mL)
Description: as §1

| Structure (SMILES) | relative IC50 (NK-92 (IL-2 2.5 ng/mL)) | relative IC50 (NK-YS (IL-2 2.5 ng/mL)) | relative IC50 (SNK-6 (IL-2 2.5 ng/mL)) | relative IC50 (KHYG-1 (IL-2 2.5 ng/mL)) | relative IC50 (NKL (IL-2 2.5 ng/mL)) | relative IC50 [1] | relative IC50 (KAI3 (IL-2 2.5 ng/mL)) | other results |
| --- | --- | --- | --- | --- | --- | --- | --- | --- |
| CCc1nc(-c2cccc(C)c2)c(-c2ccnc(NC(=O)c3ccccc3)c2)s1 [TAK-715] | 2170 nM | 1570 nM | 3250 nM | – | – | – | – | – |
| Cn1c(=O)c(F)c(Nc2ccc(I)cc2F)c2c(=O)n(C[C@@H](O)CO)cnc21 [TAK-733] | – | – | – | 22.5 nM | 12.6 nM | – | – | – |
| Cc1cc(C(C)Nc2ccccc2)c2nc(N3CCOCC3)cc(=O)n2c1 (stereo not given) [TGX-221] | – | – | – | – | – | 1450 nM | – | relative IC50 (IMC-1 (IL-2 20 ng/mL)): > 10000 nM |
| C=CC[C@@H]1/C=C(\C)C[C@H](C)C[C@H](OC)[C@H]2O[C@@](O)(C(=O)C(=O)N3CCCC[C@H]3C(=O)O[C@H](/C(C)=C/[C@@H]3CC[C@@H](O)[C@H](OC)C3)[C@H](C)[C@@H](O)CC1=O)[C@H](C)C[C@@H]2OC [Tacrolimus] | – | – | – | – | – | 1620 nM | – | – |
| CO[C@H]1C[C@@H]2CC[C@@H](C)[C@@](O)(O2)C(=O)C(=O)N2CCCC[C@H]2C(=O)O[C@H]([C@H](C)C[C@@H]2CC[C@@H](OC(=O)C(C)(CO)CO)[C@H](OC)C2)CC(=O)[C@H](C)/C=C(\C)[C@@H](O)[C@@H](OC)C(=O)[C@H](C)C[C@H](C)/C=C/C=C/C=C/1C [Temsirolimus] | – | 0.31 nM | 0.26 nM | 1.32 nM | 0.09 nM | – | 0.5 nM | relative IC50 (YT (IL-2 2.5 ng/mL)): 0.61 nM; relative IC50 (DERL-7 (IL-2 2.5 ng/mL)): 0.57 nM |
| S=P(N1CC1)(N1CC1)N1CC1 [Thio-TEPA] | – | – | – | – | 4100 nM | – | 4010 nM | – |
| Oc1ncc(N(CCCl)CCCl)c(O)n1 [Uracil mustard] | – | – | > 10000 nM | – | – | – | – | – |
| CC[C@]1(O)C[C@@H]2CN(CCc3c([nH]c4ccccc34)[C@@](C(=O)OC)(c3cc4c(cc3OC)N(C)[C@H]3[C@@](O)(C(=O)OC)[C@H](OC(C)=O)[C@]5(CC)C=CCN6CC[C@]43[C@@H]65)C2)C1 [Vinblastine] | 7.82 nM | 6.11 nM | 5.22 nM | 3.44 nM | 3.72 nM | – | 9.24 nM | relative IC50 (YT (IL-2 2.5 ng/mL)): 4.62 nM; relative IC50 (IMC-1 (IL-2 20 ng/mL)): 3.57 nM; relative IC50 (DERL-7 (IL-2 2.5 ng/mL)): 3.3 nM |
| COc1cc2c(Nc3ccc(Cl)c(Cl)c3F)ncnc2cc1OC[C@@H]1C[C@@H]2CN(C)C[C@@H]2C1 [XL-647] | 183 nM | – | – | – | 133 nM | 157 nM | – | – |
